This is an account of results in patent publication US4334066A (priority 1981, dated 1982).

Common to all, as to assay type: cell-based
In assay [1] the test system is Stem rot of eggplant (Sclerotinia Sclerotiorum). Conditions: 48 h, test microorganism C, PDA medium, complete inhibition of mycelial growth, read 2 days later, read-out: Minimum Inhibitory Concentration. The text has this:
(§1) The test microorganisms employed are described below.
C . . . Stem rot of eggplant
(Sclerotinia Sclerotiorum)

Assay [2] concerns Rice blast disease (Pyricularia oxyzae). In words: microbe, parasite or virus in culture. Conditions: 48 h, read-out: Minimum Inhibitory Concentration.
Assay [3] has as its system Early blight of tomato (Alternaria solaui). To be noted: 48 h, test microorganism E, PDA medium, complete inhibition of mycelial growth, read 2 days later, read-out: Minimum Inhibitory Concentration.
Excerpt: as §1
E . . . Early blight of tomato

In assay [4] the test system is Gammy stem blight of melon (Mycosphaerella melonis). Conditions: 48 h, test microorganism D, PDA medium, complete inhibition of mycelial growth, read 2 days later, read-out: Minimum Inhibitory Concentration.
Excerpt: as §1
D . . . Gammy stem blight of melon

The subject of assay [5] is Bacterial blight of rice (Xanthomonas oryzae). In words: microbe, parasite or virus in culture. Conditions: 48 h, read-out: Minimum Inhibitory Concentration.

Converted amounts (≈) assume the structure as drawn.

Consider `CCOC1C=C(CN2CCOCC2)C(=O)C(C(C)C)O1` (stereo not drawn) [Compound 2, 6-isopropyl-2-ethoxy-4-morpholinomethyl-5-oxo-5,6-dihydro-2H-pyran], for which the MIC turned out to be 100 µg/mL (≈ 353 µM) in assay [1], 100 µg/mL (≈ 353 µM) in assay [2], 200 µg/mL (≈ 706 µM) in assay [3] and 100 µg/mL (≈ 353 µM) in assay [4].
`CCC1OC(OC)C=C(CN2CCNCC2)C1=O` (stereo not drawn) [Compound 1, 6-ethyl-2-methoxy-4-piperazinomethyl-5-oxo-5,6-dihydro-2H-pyran]: the MIC in assay [1] was 100 µg/mL (≈ 393 µM); in assay [5] it was 12.5 µg/mL (≈ 49.1 µM); in assay [2] it was 100 µg/mL (≈ 393 µM); in assay [3] it was 200 µg/mL (≈ 786 µM); in assay [4], 100 µg/mL (≈ 393 µM).
